{"source": "ChEMBL document CHEMBL1134000", "about": "“Structure elucidation and conformational properties of a novel bioactive clerodane diterpene using a combination of high field NMR spectroscopy, computational analysis and X-ray diffraction” (2001)", "key": {"[1]": {"tested_on": "Staphylococcus hominis", "test": "Minimum inhibitory concentration against Staphylococcus hominis (ATCC 27844)", "format": "functional"}, "[2]": {"tested_on": "Staphylococcus epidermidis", "test": "Minimum inhibitory concentration against Staphylococcus epidermidis (ATCC 12228)", "format": "functional"}, "[3]": {"test": "Minimum inhibitory concentration against Pseudomonas aeruginosa", "format": "functional, […] aeruginosa"}, "[4]": {"tested_on": "Klebsiella pneumoniae", "test": "Minimum inhibitory concentration against Klebsiella pneumoniae (ATCC 13883)", "format": "functional"}, "[5]": {"tested_on": "Escherichia coli", "test": "Minimum inhibitory concentration against Escherichia coli (ATCC 25922)", "format": "functional"}, "[6]": {"tested_on": "Staphylococcus aureus", "test": "Minimum inhibitory concentration against Staphylococcus aureus (ATCC 6538)", "format": "functional"}}, "data": [{"smiles": "CC(=O)OCC1=CCC[C@@H]2[C@@](C)(CC[C@H](C)CC(=O)O)[C@H](C)CC[C@]12C", "values": [{"measurement": "MIC50", "setting": "[1]", "result": 85, "unit": "µM"}, {"measurement": "MIC50", "setting": "[2]", "result": 85, "unit": "µM"}, {"measurement": "MIC50", "setting": "[3]", "result": 1370, "unit": "µM"}, {"measurement": "MIC50", "setting": "[4]", "result": 1370, "unit": "µM"}, {"measurement": "MIC50", "setting": "[5]", "result": 1370, "unit": "µM"}, {"measurement": "MIC50", "setting": "[6]", "result": 85, "unit": "µM"}]}, {"smiles": "C[C@@H](CC[C@@]1(C)[C@H](C)CC[C@]2(C)C(CO)=CCC[C@H]12)CC(=O)O", "values": [{"measurement": "MIC50", "setting": "[1]", "result": 1240, "unit": "µM"}, {"measurement": "MIC50", "setting": "[2]", "result": 1240, "unit": "µM"}, {"measurement": "MIC50", "setting": "[3]", "result": 930, "unit": "µM"}, {"measurement": "MIC50", "setting": "[4]", "result": 930, "unit": "µM"}, {"measurement": "MIC50", "setting": "[5]", "result": 930, "unit": "µM"}, {"measurement": "MIC50", "setting": "[6]", "result": 1240, "unit": "µM"}]}, {"smiles": "C=C[C@](C)(O)CC[C@@H]1[C@@]2(C)CCCC(C)(C)[C@@H]2CC[C@@]1(C)O", "note": "[SCLAREOL]", "values": [{"measurement": "MIC50", "setting": "[1]", "result": 320, "unit": "µM"}, {"measurement": "MIC50", "setting": "[2]", "result": 320, "unit": "µM"}, {"measurement": "MIC50", "setting": "[6]", "result": 320, "unit": "µM"}]}, {"smiles": "CN[C@@H]1[C@H](O[C@H]2[C@H](O[C@H]3[C@H](O)[C@@H](O)[C@H](N=C(N)N)[C@@H](O)[C@@H]3N=C(N)N)O[C@@H](C)[C@]2(O)C=O)O[C@@H](CO)[C@H](O)[C@H]1O", "note": "[STREPTOMYCIN]", "values": [{"measurement": "MIC50", "setting": "[1]", "result": 2.1, "unit": "µM"}, {"measurement": "MIC50", "setting": "[2]", "result": 2.1, "unit": "µM"}, {"measurement": "MIC50", "setting": "[4]", "result": 0.6, "unit": "µM"}, {"measurement": "MIC50", "setting": "[5]", "result": 0.6, "unit": "µM"}, {"measurement": "MIC50", "setting": "[6]", "result": 2.1, "unit": "µM"}]}]}
